Test results published in the NIST ThermoML archive (doi:10.1016/j.tca.2012.05.025).

Columns and labels:
[1] = refractive index (Na D-line) (dimensionless); xn = mol fraction of the nth substance listed; details: 101 kPa, Liquid, Standard Abbe refractometry, x2 = 0
[2] = xn = mol fraction of the nth substance listed; details: x2 = 0; for surface tension liquid-gas: roughened platinum plate-detachment; for viscosity / mass density: 101 kPa, Liquid; for viscosity: Capillary tube (Ostwald / Ubbelohde) method; for mass density: Vibrating tube method
[3] = refractive index (Na D-line) (dimensionless); details: 101.33 kPa, Liquid, Standard Abbe refractometry
[4] = for surface tension liquid-gas: roughened platinum plate-detachment; for viscosity / mass density: 101 kPa, Liquid; for viscosity: Capillary tube (Ostwald / Ubbelohde) method; for mass density: Vibrating tube method

O [water] + CN(C)CCCO
Details	mass density, [2] [kg/m3]	refractive index, [1]	surface tension liquid-gas, [2] [mN/m]	viscosity, [2] [mPa·s]
293.15 K	–	1.333	–	–
298.15 K	–	1.3325	72.09	0.882
303.15 K	–	1.3319	71.27	0.804
308.15 K	–	1.3314	70.44	–
313.15 K	–	1.3307	69.66	0.659
318.15 K	–	1.3299	68.83	–
323.15 K	988.03	1.3291	67.95	0.551
328.15 K	–	1.3282	–	–
333.15 K	983.19	1.3273	66.23	0.47
343.15 K	977.75	–	–	0.407

CN(C)CCCO [3-dimethylamino-1-propanol]
Details	mass density, [4] [kg/m3]	refractive index, [3]	surface tension liquid-gas, [4] [mN/m]	viscosity, [4] [mPa·s]
293.15 K	–	1.4368	–	–
298.15 K	880.25	1.4347	29.01	5.839
303.15 K	876.46	1.4326	29.28	4.963
308.15 K	–	1.4305	28.88	–
313.15 K	868.42	1.4285	28.47	4.266
318.15 K	–	1.4264	28.13	–
323.15 K	860.29	1.4243	27.63	3.253
328.15 K	–	1.4222	–	–
333.15 K	852.1	1.42	26.81	2.768
343.15 K	843.77	–	–	2.03

O [water]
Details	mass density, [4] [kg/m3]	refractive index, [3]	surface tension liquid-gas, [4] [mN/m]	viscosity, [4] [mPa·s]
293.15 K	–	1.333	–	–
298.15 K	–	1.3325	72.09	0.882
303.15 K	–	1.3319	71.27	0.804
308.15 K	–	1.3314	70.44	–
313.15 K	–	1.3307	69.66	0.659
318.15 K	–	1.3299	68.83	–
323.15 K	988.03	1.3291	67.95	0.551
328.15 K	–	1.3282	–	–
333.15 K	983.19	1.3273	66.23	0.47
343.15 K	977.75	–	–	0.407
